Test results reported in patent US11279733B2, “Peptide antibiotics” (priority 2017, dated 2022).
≈ marks a conversion by molar mass, not a printed value. Positions of bridges follow the written chain, without caps; N, C: chain ends. Non-standard residues stand in square brackets, D forms with d. Residues, ends and D or L forms follow the SMILES beside them. *: point of attachment. Decanoyl(3R-OH) = CCCCCCC[C@@H](O)CC(=O)*; Heptanoyl(6-Me) = CC(C)CCCCC(=O)*; Undecanoyl = CCCCCCCCCCC(=O)*; dDab = NCC[C@@H](N)C(=O)O; dDap = NC[C@@H](N)C(=O)O; Dab = NCC[C@H](N)C(=O)O; Abu = CC[C@H](N)C(=O)O

Assays:
A. baumannii ATCC 19606 = conditions: ATCC 19606
Procedure, shortened: (§1)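 Mid-log cultures grown in Mueller Hinton broth at 37° C were tested by 2-fold broth microdilution at 5×10^5 CFU/mL final. Compounds were dissolved in water and tested over a final range of 32 to 0.015 μg/mL.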

A. baumannii GN_093 PmxR = conditions: GN 093 PmxR
Procedure, shortened: as §1

E. coli ATCC 25922 = conditions: ATCC 25922
Procedure, shortened: as §1

K. pneumoniae ATCC 13883 = conditions: ATCC 13883
Procedure, shortened: as §1

[1] = tested on: K. pneumoniae ATCC 700603, MDR; conditions: ATCC 700603
Procedure, shortened: as §1

[2] = tested on: K. pneumoniae ATCC BAA-2146, NDM-1 pos; conditions: ATCC BAA-2146
Procedure, shortened: as §1

[3] = tested on: K. pneumoniae GN_102 PmxR; conditions: GN 102 PmxR
Procedure, shortened: as §1

[4] = tested on: K. pneumoniae GN_106, PmxR; conditions: GN 106, PmxR
Procedure, shortened: as §1

P. aeruginosa ATCC 27853 = conditions: ATCC 27853
Procedure, shortened: as §1

[5] = tested on: P. aeruginosa GN_043, PmxR; conditions: P. aeruginosa GN_043, PmxR
Procedure, shortened: as §1

[6] = tested on: P. aeruginosa GN_105, PmxR; conditions: GN 105, PmxR
Procedure, shortened: as §1

in vitro = conditions: human
Description: Cytotoxicity of the synthesised peptides was evaluated by comparison with commercially available colistin (polymyxin E), polymyxin B (Sigma chemical Co., St. Louis, Mo., U.S.A.) and synthetic octapeptin C4 by conducting lactate dehydrogenase (LDH) assay. CC50 values calculated based on curve fitting of dose dependent inhibition of cell growth represented the cytotoxicity of the peptide. Human kidney 2 (HK2) cells were seeded as 2000 cells per well in a 384 well cell culture plate in a final volume of 20 μL in DMEM/F12 medium (Invitrogen #11330057), in which 10% of FBS was added. Cells were incubated for 24 hours at 37° C., 5% CO2 to allow cells to attach to the plates. Similar conditions were employed for HEK293 and HepG2 cytotoxicity assays.
Cytotoxicity to HEK293 and HepG2 cells was determined using the resazurin assay (McMillian, M. K.; Li, L.; Parker, J. B.; Patel, L.; Zhong, Z.; Gunnett, J. W.; Powers, W. J.; Johnson, M. D. An improved resazurin-based cytotoxicity assay for hepatic cells; Cell Biol. Toxicol. 2002, 18, 157-173; O'Brien, J.; Wilson, I.; Orton, T.; Pognan, F. Investigation of the Alamar Blue (resazurin) fluorescent dye for the assessment of mammalian cell cytotoxicity. Eur. J. Biochem. 2000, 267, 5421-5426). In brief, HEK293 and HepG2 cells were seeded at 4000 cells/well in black-wall, clear-bottom 384-well plates (Corning, Australia) and incubated for 24 h at 37° C., 5% CO2. Compounds were then added into each well. After 24 h incubation, 5 μM resazurin was added per well and incubated at 37° C. for 2 h. Fluorescence intensity was then read using a Polarstar Omega with excitation/emission 560/590. The data was then analyzed using GraphPad Prism 6 software. CC50 values were determined using GraphPad Prism 6 software (Inc. La Jolla, Calif.).

CCCCCCC[C@@H](O)CC(=O)N[C@H](CN)C(=O)N[C@H]1CCNC(=O)[C@H](CC(C)C)NC(=O)[C@H](CCN)NC(=O)[C@H](CCN)NC(=O)[C@H](C(C)C)NC(=O)[C@@H](Cc2ccccc2)NC(=O)[C@H](CCN)NC1=O [compound 9291, 3(R)OH-nC9CO-D-Dap-cyc[L-Dab-L-Dab-D-Phe-L-Val-L-Dab-L-Dab-L-Leu]] ({Decanoyl(3R-OH)}-[dDap][Dab][Dab][dF]V[Dab][Dab]L; lactam 2-C)
MIC A. baumannii ATCC 19606 (A. baumannii ATCC 19606): >32 µg/mL | MIC A. baumannii GN_093 PmxR (A. baumannii GN_093 PmxR): 32 µg/mL (≈ 31.5 µM) | MIC E. coli ATCC 25922 (E. coli ATCC 25922): 2 µg/mL (≈ 1.97 µM) | MIC K. pneumoniae ATCC 13883 (K. pneumoniae ATCC 13883): 8 µg/mL (≈ 7.87 µM) | MIC K. pneumoniae ATCC 700603, MDR [1]: 8 µg/mL (≈ 7.87 µM) | MIC K. pneumoniae ATCC BAA-2146, NDM-1 pos [2]: 8 µg/mL (≈ 7.87 µM) | MIC K. pneumoniae GN_102 PmxR [3]: 32 µg/mL (≈ 31.5 µM) | MIC K. pneumoniae GN_106, PmxR [4]: 32 µg/mL (≈ 31.5 µM) | MIC P. aeruginosa ATCC 27853 (P. aeruginosa ATCC 27853): 2 µg/mL (≈ 1.97 µM) | MIC P. aeruginosa GN_043, PmxR [5]: 2 µg/mL (≈ 1.97 µM) | MIC P. aeruginosa GN_105, PmxR [6]: 32 µg/mL (≈ 31.5 µM) | CC50 at 24 h (in vitro): > 300 µM

CCCCCCCCCCC(=O)N[C@H](CN)C(=O)N[C@H]1CCNC(=O)[C@H](CC(C)C)NC(=O)[C@H](CCN)NC(=O)[C@H](CCN)NC(=O)[C@H](CC(C)C)NC(=O)[C@@H](Cc2ccccc2)NC(=O)[C@H](CCN)NC1=O [compound 9296, nC10CO-D-Dap-cyc[L-Dab-L-Dab-D-Phe-L-Leu-L-Dab-L-Dab-L-Leu]] (Undecanoyl-[dDap][Dab][Dab][dF]L[Dab][Dab]L; lactam 2-C)
MIC A. baumannii ATCC 19606 (A. baumannii ATCC 19606): 16 µg/mL (≈ 15.6 µM) | MIC A. baumannii GN_093 PmxR (A. baumannii GN_093 PmxR): 32 µg/mL (≈ 31.1 µM) | MIC E. coli ATCC 25922 (E. coli ATCC 25922): 4 µg/mL (≈ 3.89 µM) | MIC K. pneumoniae ATCC 13883 (K. pneumoniae ATCC 13883): 4 µg/mL (≈ 3.89 µM) | MIC K. pneumoniae ATCC 700603, MDR [1]: 2 µg/mL (≈ 1.94 µM) | MIC K. pneumoniae ATCC BAA-2146, NDM-1 pos [2]: 4 µg/mL (≈ 3.89 µM) | MIC K. pneumoniae GN_102 PmxR [3]: 2 µg/mL (≈ 1.94 µM) | MIC K. pneumoniae GN_106, PmxR [4]: 4 µg/mL (≈ 3.89 µM) | MIC P. aeruginosa ATCC 27853 (P. aeruginosa ATCC 27853): 2 µg/mL (≈ 1.94 µM) | MIC P. aeruginosa GN_043, PmxR [5]: 1 µg/mL (≈ 0.972 µM) | MIC P. aeruginosa GN_105, PmxR [6]: 32 µg/mL (≈ 31.1 µM) | CC50 at 24 h (in vitro): 63 µM

CCCCCCC[C@@H](O)CC(=O)N[C@H](CN)C(=O)N[C@H]1CCNC(=O)[C@H](CC(C)C)NC(=O)[C@H](CCN)NC(=O)[C@H](CCN)NC(=O)[C@H](CC)NC(=O)[C@@H](Cc2ccccc2)NC(=O)[C@H](CCN)NC1=O [compound 9292, 3(R)OH-nC9CO-D-Dap-cyc[L-Dab-L-Dab-D-Phe-L-Abu-L-Dab-L-Dab-L-Leu]] ({Decanoyl(3R-OH)}-[dDap][Dab][Dab][dF][Abu][Dab][Dab]L; lactam 2-C)
MIC A. baumannii ATCC 19606 (A. baumannii ATCC 19606): 8 µg/mL (≈ 7.98 µM) | MIC A. baumannii GN_093 PmxR (A. baumannii GN_093 PmxR): 8 µg/mL (≈ 7.98 µM) | MIC E. coli ATCC 25922 (E. coli ATCC 25922): 4 µg/mL (≈ 3.99 µM) | MIC K. pneumoniae ATCC 13883 (K. pneumoniae ATCC 13883): 4 µg/mL (≈ 3.99 µM) | MIC K. pneumoniae ATCC 700603, MDR [1]: 4 µg/mL (≈ 3.99 µM) | MIC K. pneumoniae ATCC BAA-2146, NDM-1 pos [2]: 4 µg/mL (≈ 3.99 µM) | MIC K. pneumoniae GN_102 PmxR [3]: 2 µg/mL (≈ 2 µM) | MIC K. pneumoniae GN_106, PmxR [4]: 4 µg/mL (≈ 3.99 µM) | MIC P. aeruginosa ATCC 27853 (P. aeruginosa ATCC 27853): 2 µg/mL (≈ 2 µM) | MIC P. aeruginosa GN_043, PmxR [5]: 2 µg/mL (≈ 2 µM) | MIC P. aeruginosa GN_105, PmxR [6]: 8 µg/mL (≈ 7.98 µM) | CC50 at 24 h (in vitro): > 300 µM

CC(C)CCCCC(=O)N[C@H](CCN)C(=O)N[C@H]1CCNC(=O)[C@H](CC(C)C)NC(=O)[C@H](CCN)NC(=O)[C@H](CCN)NC(=O)[C@H](CC(C)C)NC(=O)[C@@H](Cc2ccccc2)NC(=O)[C@H](CCN)NC1=O [compound 9290, 6Me-nC6CO-D-Dab-cyc[L-Dab-L-Dab-D-Phe-L-Leu-L-Dab-L-Dab-L-Leu]] ({Heptanoyl(6-Me)}-[dDab][Dab][Dab][dF]L[Dab][Dab]L; lactam 2-C)
MIC A. baumannii ATCC 19606 (A. baumannii ATCC 19606): 16 µg/mL (≈ 16 µM) | MIC A. baumannii GN_093 PmxR (A. baumannii GN_093 PmxR): 16 µg/mL (≈ 16 µM) | MIC E. coli ATCC 25922 (E. coli ATCC 25922): 8 µg/mL (≈ 8 µM) | MIC K. pneumoniae ATCC 13883 (K. pneumoniae ATCC 13883): 8 µg/mL (≈ 8 µM) | MIC K. pneumoniae ATCC 700603, MDR [1]: 4 µg/mL (≈ 4 µM) | MIC K. pneumoniae ATCC BAA-2146, NDM-1 pos [2]: 4 µg/mL (≈ 4 µM) | MIC K. pneumoniae GN_102 PmxR [3]: 4 µg/mL (≈ 4 µM) | MIC K. pneumoniae GN_106, PmxR [4]: 4 µg/mL (≈ 4 µM) | MIC P. aeruginosa ATCC 27853 (P. aeruginosa ATCC 27853): 2 µg/mL (≈ 2 µM) | MIC P. aeruginosa GN_043, PmxR [5]: 1 µg/mL (≈ 1 µM) | MIC P. aeruginosa GN_105, PmxR [6]: 16 µg/mL (≈ 16 µM) | CC50 at 24 h (in vitro): > 300 µM
